Results taken from patent US20240366649A1, “4-ETHYNYL-3-HYDROXY-TETRAHYDROFURANYL-ADENINE PHOSPHORAMIDATES AND RELATED COMPOUNDS AND THEIR USE IN TREATING MEDICAL CONDITIONS” (ROME THERAPEUTICS, INC., priority 2021, published 2024).

How the values were obtained:
Type in all cases: cell-based
[1] = test system: IFN production in THP1 TREX1 KO cells; assay: Cellular assay for altering IFN production in THP1 TREX1 KO cells; conditions: FIG. 6-8, % induction versus compound concentration
Experimental: THP1-Dual™ KO-TREX1 cells were purchased from Invivogen (cat #thpd-kotrex). The THP1-Dual™ KO-TREX1 cells were cultured in RPMI 1640, 10% heat-inactivated fetal bovine serum, 25 mM HEPES, 10 μg/mL Blasticidin, and […] Zeocin. THP1-Dual™ KO-TREX cells were treated with a dose titration of test compound in the presence of 1 μM 5-aza-2′-deoxycytidine (Sigma, cat #189825). Type 1 Interferon and cell viability were assessed after five days of treatment.
Stock solution of test compound was prepared in DMSO followed by a three-fold dilution in DMSO. Additional 50× dilution was prepared in cell culture media for each dilution. 10 μL of diluted test compound was then added to a 384-well plate.
THP1-Dual™ KO-TREX1 cells were treated with 1 μM 5-aza-2′-deoxycytidine. THP1-Dual™ KO-TREX1 cells (50 μL) were added to each well of the 384-well plate containing test compound titration at 10,000 cells/well. Cells were incubated at 37° C., 5% CO2 in a humidified incubator for five days. On day five, 20 μL of cell supernatant was transferred to a 384-well, white-walled plate, followed by addition to each well of 50 μL of QUANTI-LUC solution containing stabilizer. Luminescence was detected on a plate reader according to manufacturer's instructions.
For certain compounds, the assay was run in a 96-well format, with the following modifications: • 190 μL, instead of 50 μL, of cells were added to each well, to provide 50,000 cells/well, instead of 10,000 cells/well, • Cells were incubated for 6 days, instead of 5 days, • 25 μL, instead of 20 μL, of cell supernatant was added to the white-walled plate for QUANT-LUC treatment; and • 25 μL, instead of 30 μL, of CellTiter-Glo was added to assess cell viability.
Percent inhibition of interferon was calculated using the following analysis: (Average DMSO-Sample)/(Average DMSO-Average 30 μM control reagent)*100. The control reagent for inhibition of interferon was a specific nucleoside reverse-transcriptase inhibitor with molecular weight <600 a.m.u. Percent induction of interferon was calculated using the following analysis: (Sample-Average DMSO)/(10 μM control reagent-Average DMSO)*100. The control reagent for induction of interferon was compound 8 (4′-ethynyl-2-chloro-2′-deoxyadenosine).

[2] = test system: Ovarian cancer OVCAR-8 cells; assay: Cancer cell viability assay with 3D cell colonies (CellTiter-Glo), OVCAR-8; conditions: Homo sapiens, 168 h; OVCAR-8, 3D methylcellulose colonies, 7 days
Experimental: (§1) Cancer cell lines were cultured in the following media: • Ovarian cancer OVCAR-8 cells—RPMI media containing 10% FBS • Ovarian cancer SK-OV-3 cells—McCoy's 5a media containing 10% FBS • Ovarian cancer SW756 cells—L-15 (100% air)+10% FBS • Esophageal cancer TE-1 cells—RPMI-1640+10% FBS • Esophageal cancer KYSE-410 cells—RPMI-1640+5˜10% FBS • Esophageal cancer KYSE-70 cells—RPMI-1640+10% h.i.FBS. • Pharyngeal cancer FaDu cells—MEM+0.01 mM NEAA+10% FBS
(§2) Cell colony formation was tested using a 3D methylcellulose-based CellTiter-Glo (CTG) viability assay (Cat. No: G7573, Promega). Briefly, cells were inoculated into 96-well plates (at 1,500 cells per well) into a solution of 0.65% methylcellulose in growth media and incubated overnight at 37° C. in 5% CO2. The next day, serially diluted test compound (islatravir, 4′-ethynyl-2-fluoro-2′-deoxyadenosine) or positive control (cisplatin, Cat. No. 6J015A89, Qilu Pharma) were added at the indicated concentrations, and the cells were incubated for 7 days. On day seven, 100 μL of CTG reagent was added, and the plates were incubated at room temperature for 20 min. Luminescence was read on an Envision Multi Label Reader according to manufacturer's instructions. IC50 values were determined using the following calculation: […]

[3] = test system: Ovarian cancer SK-OV-3 cells; assay: Cancer cell viability assay with 3D cell colonies (CellTiter-Glo), SK-OV-3; conditions: Homo sapiens, 168 h; SK-OV-3, 3D methylcellulose colonies, 7 days
Experimental: as §1, §2

[4] = test system: Ovarian cancer SW756 cells; assay: Cancer cell viability assay with 3D cell colonies (CellTiter-Glo), SW756; conditions: Homo sapiens, 168 h; SW756, 3D methylcellulose colonies, 7 days
Experimental: as §1, §2

[5] = test system: Esophageal cancer KYSE-410 cells; assay: Cancer cell viability assay with 3D cell colonies (CellTiter-Glo), KYSE-410; conditions: Homo sapiens, 168 h; KYSE-410, 3D methylcellulose colonies, 7 days
Experimental: as §1, §2

[6] = test system: Esophageal cancer KYSE-70 cells; assay: Cancer cell viability assay with 3D cell colonies (CellTiter-Glo), KYSE-70; conditions: Homo sapiens, 168 h; KYSE-70, 3D methylcellulose colonies, 7 days
Experimental: as §1, §2

[7] = biological target: LINE1 reverse transcriptase (Homo sapiens, UniProt O00370); assay: Stable artificial-intron Cis LINE1 reporter assay; design: expressed in transfected cells; conditions: HeLa L1 artificial-intron reporter cells, doxycycline-induced, 72 h, Firefly luciferase activity
Description: A stable HeLa Tet-On 3G (Takara, cat no 631183) cell line expressing a bi-directional inducible LINE1 construct was generated as described in Xie, Y. et al. “Cell division promotes efficient retrotransposition in a stable L1 reporter cell line,” Mobile DNA (2013) 4:10. Single cell clones were screened for high Luciferase expression and the highest expression Firefly expressing clone was chosen for compound testing.
Test compounds were serially diluted in DMSO and spotted in 96-well plates. Subsequently the HeLa L1 artificial-intron reporter cells were plated into the compound-containing wells (8,000 cells/well), and the cells were induced for reporter expression with doxycycline (Sigma cat no D9891) at a final concentration of 500 ng/mL. Luminescence was measured 72 h after plating using the Dual-Glo Luciferase Assay System (Promega cat no E2940) following the manufacturer's instructions. The Firefly Luciferase activity (normalized against its activity in a control well without test compound) was used to report LINE1 activity.

Sequence of LINE1 reverse transcriptase (O00370 whole entry, looked up): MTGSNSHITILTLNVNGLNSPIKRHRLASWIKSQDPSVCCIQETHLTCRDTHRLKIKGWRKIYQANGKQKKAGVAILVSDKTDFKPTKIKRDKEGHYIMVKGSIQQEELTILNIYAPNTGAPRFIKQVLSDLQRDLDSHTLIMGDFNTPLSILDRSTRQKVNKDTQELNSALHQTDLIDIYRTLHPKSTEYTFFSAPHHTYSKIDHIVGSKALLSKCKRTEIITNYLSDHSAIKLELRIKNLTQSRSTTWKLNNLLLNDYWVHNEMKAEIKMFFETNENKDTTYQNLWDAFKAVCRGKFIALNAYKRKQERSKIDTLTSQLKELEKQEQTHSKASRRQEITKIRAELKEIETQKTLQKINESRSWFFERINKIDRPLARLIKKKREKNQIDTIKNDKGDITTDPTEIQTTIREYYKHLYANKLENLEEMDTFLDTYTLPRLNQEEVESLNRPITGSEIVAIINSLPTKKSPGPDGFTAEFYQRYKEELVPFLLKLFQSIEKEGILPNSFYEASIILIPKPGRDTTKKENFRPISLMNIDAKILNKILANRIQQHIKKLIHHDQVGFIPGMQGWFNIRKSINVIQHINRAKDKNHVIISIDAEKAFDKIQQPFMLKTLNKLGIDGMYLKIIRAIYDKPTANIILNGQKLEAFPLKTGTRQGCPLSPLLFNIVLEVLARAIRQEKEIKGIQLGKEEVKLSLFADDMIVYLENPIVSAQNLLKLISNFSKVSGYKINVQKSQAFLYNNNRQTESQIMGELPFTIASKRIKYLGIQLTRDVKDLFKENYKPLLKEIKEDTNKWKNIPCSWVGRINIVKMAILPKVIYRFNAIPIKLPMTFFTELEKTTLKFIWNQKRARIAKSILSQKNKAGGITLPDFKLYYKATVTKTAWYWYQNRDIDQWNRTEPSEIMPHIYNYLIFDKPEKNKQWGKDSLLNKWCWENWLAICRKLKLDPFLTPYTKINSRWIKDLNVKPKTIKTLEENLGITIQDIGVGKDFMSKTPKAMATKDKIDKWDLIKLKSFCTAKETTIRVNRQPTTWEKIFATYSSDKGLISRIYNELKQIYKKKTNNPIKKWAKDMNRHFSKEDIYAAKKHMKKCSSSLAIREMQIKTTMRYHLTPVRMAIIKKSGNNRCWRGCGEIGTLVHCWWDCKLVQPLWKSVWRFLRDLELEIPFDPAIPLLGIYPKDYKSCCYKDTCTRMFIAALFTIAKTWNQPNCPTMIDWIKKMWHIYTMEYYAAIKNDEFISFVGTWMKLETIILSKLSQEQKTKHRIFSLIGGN

IC50 [2]: ≤ 10 µM | IC50 [3]: ≤ 10 µM | IC50 [4]: > 30 µM | IC50 [5]: > 30 µM | IC50 [6]: 10 to 30 µM | IC50 [7]: ≤ 0.05 µM
Structure (SMILES): C#C[C@]1(CO)O[C@@H](n2cnc3c(N)nc(F)nc32)C[C@@H]1O [islatravir, 4′-ethynyl-2-fluoro-2′-deoxyadenosine]
change in IFN levels (figure) [1]: induction of IFN
